The text below walks through data of patent US5455274A, “Hydroxyamidine derivatives” (Ciba-Geigy Corporation, priority 1992, dated 1995).

The structures appear in SMILES notation.

A word on the IC50: it is the concentration at which inhibition is half-maximal.

The test system of assay [1] is LTB4 -induced neutropenia. Nature of the assay: LTB4-induced neutropenia in the rat. The format is in vivo. The following applies: dose of about 0.5 mg./Kg p.o., determined at four hours after administration. How it is done:
LTB4 -Induced Neutropenia in the Rat
Male Sprague Dawley rats (crl: CDBR; Charles River, Wilmington, Mass.) (250-300 grams) are fasted overnight prior to the experiment. At least six animals are used per treatment group. Rats are given vehicle or compound either intravenously or orally and at intervals after dosing, neutrophil counts are determined from blood samples obtained just prior to and 20 seconds after intravenous infusion of 200 ng LTB4. In studies where compound is administered orally, drug is given by gavage. When drug is administered intravenously, rats are first anesthetized with 50 mg/kg i.p. of Sodium Pentabarbital. The jugular vein is exposed and cleaned of the surrounding tissue. At 3, 4 or 18 hours following administration of compound or vehicle by either route, blood samples are taken (0.3 ml of blood in 1.5 ml polypropylene microcentrifuge tube containing 0.01 mi 7.5% EDTA). Blood neutrophil counts are determined using a Technicon H-1 hematology instrument. Antagonism of the LTB4 -induced neutropenia response for the compounds tested is calculated.

Assay [2] relates to Human PMNs. Briefly: LTB4-induced PMN aggregation. The format is cell-based. The conditions noted are these: in vitro, 20 nM LTB4, read-out: inhibits LTB4 -induced PMN aggregation, IC50. How it is done: Neutrophils (PMN's) are prepared from uncoagulated human venous blood. Blood is dispersed into 50 ml polypropylene tubes containing 15 ml of HESPAN (Dupont, Wilmington, Del.), and mixed. Tubes are allowed to stand at room temperature for 40 minutes until most of the red blood cells sediment. The supernatants are removed and centrifuged for 5-10 min at 400×g. The remaining pellets are diluted in 70 ml of Phosphate Buffered Saline without calcium and magnesium (PBS without metals; GIBCO, Grand Island, N.Y.) and 35 ml of this suspension are placed in each of two polypropylene tubes containing 15 ml of Ficoll-Paque (Sigma, St. Louis, Mo.). Gradients are then centrifuged for 15 minutes at 420×g. […]
Human PMNs are prepared as previously described. Neutrophil aggregation is assessed by monitoring the intensity of light passing through a suspension of cells (Craddock et al., J. Clin. Invest. 60: 260-264, 1977) using a Payton dual channel aggregometer (model 300BD). […] 5 μl of 2 μM LTB4 in PBS (20 nM final concentration) are added and the aggregation response monitored for 3-5 min, the time required for optimal response, Compounds are solubilized in 0.01M DMSO and then diluted in PBS to 0.001 M. 5 μl of compound solution is added along with cytochalasin B and cells as described above. Following the preincubation period 5 μl of 2 μM LTB4 are added and aggregation is measured. […]

As to `CC(C)N(C(=O)c1ccc(OCCCCCOc2ccc(C(N)=NO)cc2)cc1O)C(C)C` [Example 1, 4-[5-[4-[amino(hydroxyimino)methyl]phenoxy]pentyloxy]-2-hydroxy-N,N-bis(1-methylethyl)benzamide], the “inhibition of LTB4 -induced neutropenia in the rat” value in assay [1] is listed as “causes inhibition”. The half-inhibitory concentration (IC50) in assay [2] was around 10 nM.
